Results: patent US20110190269A1, “GAMMA SECRETASE MODULATORS” (priority 2010, published 2011)

System: γ-secretase
Experiment: Cellular γ-secretase assay (inhibition of Aβ42 secretion)
Assay type: cell-based
Conditions: human neuroglioma H4 cells overexpressing human APP, 22 hrs incubation
Procedure, shortened: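 H4 neuroglioma cells overexpressing human APP got a ten-point compound dilution (0.4% DMSO final) for 22 h at 37 °C. Secreted Aβ42 in the supernatant was measured by electrochemiluminescence sandwich immunoassay (capture biotinylated 6E10, detection ruthenylated BAP15). IC50 came from a nonlinear regression fit.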

| EC50 | Structure (SMILES) |
| --- | --- |
| 30 nM | COc1cc(Nc2nc3c(-c4ccc(F)c(F)c4)cccn3n2)ccc1-c1ccnc(C)c1 [Example 128, 8-(3,4-Difluorophenyl)-N-(3-methoxy-4-(2-methylpyridin-4-yl)phenyl)-[1,2,4]triazolo[1,5-a]pyridin-2-amine] |
| 300 nM | COc1cc(Nc2nc3n(n2)CCN(C)C3c2ccc(F)cc2)ccc1-n1cnc(C)c1 (stereo not shown) [Example 129, 8-(4-fluorophenyl)-N-(3-methoxy-4-(4-methyl-1H-imidazol-1-yl)phenyl)-7-methyl-5,6,7,8-tetrahydro-[1,2,4]triazolo[1,5-a]pyrazin-2-amine] |
| 16 nM | COc1cc(Nc2nc3c(-c4ccc(F)c(Cl)c4)cccn3n2)ccc1-n1cnc(C)c1 [Example 130, 8-(3-chloro-4-fluorophenyl)-N-(3-methoxy-4-(4-methyl-1H-imidazol-1-yl)phenyl)-[1,2,4]triazolo[1,5-a]pyridin-2-amine] |
| 38 nM | COc1cc(Nc2nc3c(-c4ccc(F)cc4Cl)cccn3n2)ccc1-n1cnc(C)c1 [Example 131, 8-(2-chloro-4-fluorophenyl)-N-(3-methoxy-4-(4-methyl-1H-imidazol-1-yl)phenyl)-[1,2,4]triazolo[1,5-a]pyridin-2-amine] |
| 137 nM | COc1cc(Nc2nc3c(-c4ccc(F)cc4F)cccn3n2)ccc1-n1cnc(C)c1 [Example 132, 8-(2,4-difluorophenyl)-N-(3-methoxy-4-(4-methyl-1H-imidazol-1-yl)phenyl)-[1,2,4]triazolo[1,5-a]pyridin-2-amine] |
| 45 nM | COc1cc(Nc2nc3c(-c4ccc(F)cc4Cl)cccn3n2)ccc1-c1ccnc(C)c1 [Example 133, [8-(2-Chloro-4-fluoro-phenyl)-[1,2,4]triazolo[1,5-a]pyridin-2-yl]-[3-methoxy-4-(2-methyl-pyridin-4-yl)-phenyl]-amine] |
| 141 nM | COc1cc(Nc2nc3c(-c4ccc(F)c(F)c4)ccc(C(F)(F)F)n3n2)ccc1-n1cnc(C)c1 [Example 135, 8-(3,4-difluorophenyl)-N-(3-methoxy-4-(4-methyl-1H-imidazol-1-yl)phenyl)-5-(trifluoromethyl)-[1,2,4]triazolo[1,5-a]pyridin-2-amine] |
| 152 nM | COc1cc(Nc2nc3c(Oc4ccccc4)cccn3n2)ccc1-n1cnc(C)c1 [Example 136, N-(3-methoxy-4-(4-methyl-1H-imidazol-1-yl)phenyl)-8-phenoxy-[1,2,4]triazolo[1,5-a]pyridin-2-amine] |
| 266 nM | COc1cc(Nc2nc3c(Oc4cccc(Cl)c4)cccn3n2)ccc1-n1cnc(C)c1 [Example 137, 8-(3-chlorophenoxy)-N-(3-methoxy-4-(4-methyl-1H-imidazol-1-yl)phenyl)-[1,2,4]triazolo[1,5-a]pyridin-2-amine] |
| 311 nM | COc1cc(Nc2nc3c(N4CCC(F)CC4)cccn3n2)ccc1-n1cnc(C)c1 [Example 139, 8-(4-fluoropiperidin-1-yl)-N-(3-methoxy-4-(4-methyl-1H-imidazol-1-yl)phenyl)-[1,2,4]triazolo[1,5-a]pyridin-2-amine] |
| 180 nM | COc1cc(Nc2nc3c(N4CCC(C(F)(F)F)CC4)cccn3n2)ccc1-n1cnc(C)c1 [Example 140, N-(3-methoxy-4-(4-methyl-1H-imidazol-1-yl)phenyl)-8-(4-(trifluoromethyl)piperidin-1-yl)-[1,2,4]triazolo[1,5-a]pyridin-2-amine] |
| 375 nM | COc1cc(Nc2nc3c(N4CCC(F)(F)CC4)cccn3n2)ccc1-n1cnc(C)c1 [Example 141, 8-(4,4-difluoropiperidin-1-yl)-N-(3-methoxy-4-(4-methyl-1H-imidazol-1-yl)phenyl)-[1,2,4]triazolo[1,5-a]pyridin-2-amine] |
| 232 nM | COc1cc(Nc2nc3n(n2)CCOC3c2ccccc2)ccc1-n1cnc(C)c1 (stereo not shown) [Example 142, N-(3-methoxy-4-(4-methyl-1H-imidazol-1-yl)phenyl)-8-phenyl-6,8-dihydro-5H-[1,2,4]triazolo[5,1-c][1,4]oxazin-2-amine] |
